Experiment [1] relates to apomorphine-induced stereotypy in rats. Kind of experiment: Apomorphine-induced stereotypy in rats (APO). The following applies: Rattus norvegicus; dose at which 50% of the tested animals show the effect; ≧: active in 30% of the animals at the indicated dose; ≦: active in 60%. The class given is in vivo. As to the method:
Apomorphine (1.0 mg/kg, i.v.)-induced stereotypy (compulsive sniffing, licking, chewing) was scored every 5 min over the first hour after injection of apomorphine, following a 1 hour interval pre-treatment with the test compound. The score system was: (3) pronounced, (2) moderate, (1) slight, and (0) absent.

Experiment [2] concerns conditioned avoidance response in rats. Kind of experiment: Conditioned avoidance response (CAR) test. Type of experiment: in vivo. The note with it: Rattus norvegicus. An excerpt: The apparatus consisted of an inner box surrounded by an outer box. The inner box was composed of four walls of transparent, synthetic material (length×width×height: 30×30×30 cm), an open top, and a grid floor made of 15 pairs of iron bars (2 mm diameter; 6 mm inter-bar distance). Odd and even bars were connected with a source of alternative current (1.0 mA; Coulbourn Instruments Solid State Shocker/Distributor), which could be interrupted by a switch. The outer box was composed of the same material (length×width×height: 40×40×36 cm), also with an open top, with a distance of 5 cm between the inner and outer box on all sides. To decrease the amount of environmental stimuli, three walls of the outer box were made non-transparent. The front wall was left transparent to allow the necessary inspection of the animal during the test. The upper edge of the outer and inner box served as a target for the rats on which to jump with fore- and hind-paws, respectively.
From their arrival in the laboratory on the experimental day, male Wiga Wistar rats (230±30 g) were housed in individual cages provided with bedding material.
The rats were tested 3 times, i.e. at 60, 90 and 120 min after the injection of test compound or solvent. Latency to avoidance was recorded. The median avoidance response obtained over the three experimental sessions for each rat were used for further calculations.

The target of another experiment is T1, PDE10 (Rattus norvegicus, UniProt Q9QYJ6).
T1 construct: from tissue; host or cells: rat brain sections, striatum (in vivo dosing, ex vivo autoradiography)
T1 sequence (Q9QYJ6 1-794): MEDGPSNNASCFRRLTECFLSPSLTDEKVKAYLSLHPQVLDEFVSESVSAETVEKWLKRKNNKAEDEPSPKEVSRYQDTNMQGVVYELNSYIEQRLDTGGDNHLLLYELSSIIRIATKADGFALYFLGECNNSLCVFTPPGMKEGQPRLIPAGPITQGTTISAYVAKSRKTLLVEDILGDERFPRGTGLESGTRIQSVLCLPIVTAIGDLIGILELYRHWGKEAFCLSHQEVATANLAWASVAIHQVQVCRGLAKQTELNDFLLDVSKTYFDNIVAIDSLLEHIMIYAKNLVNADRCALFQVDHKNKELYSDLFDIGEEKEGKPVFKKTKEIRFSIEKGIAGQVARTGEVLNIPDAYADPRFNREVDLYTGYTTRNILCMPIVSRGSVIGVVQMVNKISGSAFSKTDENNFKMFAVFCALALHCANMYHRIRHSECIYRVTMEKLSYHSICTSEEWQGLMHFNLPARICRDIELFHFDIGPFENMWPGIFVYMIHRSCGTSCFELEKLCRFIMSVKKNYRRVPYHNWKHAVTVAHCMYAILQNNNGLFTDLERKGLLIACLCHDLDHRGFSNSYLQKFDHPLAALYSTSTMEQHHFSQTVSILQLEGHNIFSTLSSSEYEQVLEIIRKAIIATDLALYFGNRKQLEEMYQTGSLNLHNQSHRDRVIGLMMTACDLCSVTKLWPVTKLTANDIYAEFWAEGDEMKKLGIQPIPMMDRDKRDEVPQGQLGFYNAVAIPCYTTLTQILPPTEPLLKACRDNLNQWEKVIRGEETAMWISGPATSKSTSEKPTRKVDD
Kind of experiment: PDE10 occupancy ([3H]-MP-10, striatum). Type of experiment: in vivo. The following applies: rat; for ED50: dose response; for receptor occupancy at 10 mg/kg: single dose 10 mg/kg, subcutaneous, read-out: SD sc % occupancy at 10 mg/kg. The method, boiled down: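 Male Wistar rats (200 g) dosed s.c. or p.o.; occupancy measured 1 h post-dose. [^3H]-MP-10 (10 μCi/animal) given i.v. 30 min before sacrifice.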

A further experiment addresses PDE4D3 (Homo sapiens, UniProt Q08499). Kind of experiment: In vitro PDE selectivity assay (SPA), PDE4D3. Type of experiment: biochemical. The following applies: hPDE4D3; read-out: PDE 4D3 (expressed as pIC50) (converted). The gist of the method:
(§1)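 Inhibition of each PDE isoform was measured by scintillation proximity assay with ³H-cyclic nucleotide substrate, using incubation buffer, substrate concentration, incubation time and stop solution adapted per isoform. Compounds were tested in dose-response against 1% DMSO controls and enzyme-free blanks. IC50 came from a least-squares fit of blank-subtracted % of control versus concentration.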

In the next experiment the target is PDE5A3 (Homo sapiens, UniProt O76074). Kind of experiment: In vitro PDE selectivity assay (SPA), PDE5A3. The note with it: hPDE5A3; read-out: PDE 5A3 (expressed as pIC50) (converted). Type of experiment: biochemical. The gist of the method: as §1
Setting [3] is: sc, subcutaneous administration, read-out: PDE10 in vivo occupancy ED50 sc.
Where [4] appears, read: oral administration, read-out: PDE10 in vivo occupancy ED50 po.

The values that follow come from patent US20120220581A1, “IMIDAZO[1,2-b]PYRIDAZINE DERIVATIVES AND THEIR USE AS PDE10 INHIBITORS” (Janssen-Cilag, S.A., priority 2009, published 2012).

Read-outs that look alike come from different tables or passages of the source.

Chain of PDE4D3 (Q08499 1-673 isoform Q08499-2): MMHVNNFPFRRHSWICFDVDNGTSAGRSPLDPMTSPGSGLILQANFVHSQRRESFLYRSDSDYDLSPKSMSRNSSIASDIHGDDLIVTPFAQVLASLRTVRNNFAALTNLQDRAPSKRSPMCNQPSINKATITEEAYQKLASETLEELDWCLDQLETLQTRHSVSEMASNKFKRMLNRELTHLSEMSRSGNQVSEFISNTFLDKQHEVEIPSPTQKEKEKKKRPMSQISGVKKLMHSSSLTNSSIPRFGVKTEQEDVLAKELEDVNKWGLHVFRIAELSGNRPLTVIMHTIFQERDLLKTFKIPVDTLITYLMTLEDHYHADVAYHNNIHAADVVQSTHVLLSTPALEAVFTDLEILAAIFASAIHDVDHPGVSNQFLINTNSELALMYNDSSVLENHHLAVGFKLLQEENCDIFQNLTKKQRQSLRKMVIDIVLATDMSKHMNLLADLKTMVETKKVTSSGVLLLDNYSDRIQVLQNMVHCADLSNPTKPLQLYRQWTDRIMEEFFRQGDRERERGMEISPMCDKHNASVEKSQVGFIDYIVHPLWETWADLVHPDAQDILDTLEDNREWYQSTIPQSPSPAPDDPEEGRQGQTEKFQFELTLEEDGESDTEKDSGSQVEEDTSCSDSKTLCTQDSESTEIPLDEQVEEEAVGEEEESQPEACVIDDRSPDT

In the case of `COCCc1ccc(-c2c(C)nc3c(N4CCOCC4)ccnn23)cn1` [compound 1, 3-[6-(2-methoxyethyl)-3-pyridinyl]-2-methyl-8-(4-morpholinyl)-imidazo[1,2-b]pyridazine], the ED50 (commonly the dose that gives a 50% effect, or the effect in half of the subjects) in experiment [1] is 1.3 mg/kg; in experiment [2], 4.7 mg/kg; at PDE10 (setting [3]), 0.48 mg/kg; at PDE10 (setting [4]), 1.4 mg/kg. For the same compound, on PDE10 (sc), the receptor occupancy at 10 mg/kg is 76%. Moreover, the IC50 on PDE4D3 was 30.9 µM; on PDE5A3, 17 µM.

With `COCCOc1ccc(-c2c(C)nc3c(-c4ccncc4)ccnn23)cn1` [compound 21, 3-[6-(2-methoxyethoxy)-3-pyridinyl]-2-methyl-8-(4-pyridinyl)-imidazo[1,2-b]pyridazine], the median effective dose (ED50) in experiment [1] came to 1.5 mg/kg; in experiment [2] it was 5.4 mg/kg; on PDE10 (setting [3]), 2.6 mg/kg; at PDE10 (setting [4]), 14 mg/kg. Also, the receptor occupancy at 10 mg/kg at PDE10 (sc) turned out to be 61%. The values for the IC50 on PDE4D3 and at PDE5A3 were 28.2 µM and 19.1 µM, respectively.
